Reference: article PMC6220272, “Scaffold-Hopping from Synthetic Drugs by Holistic Molecular Representation” (Scientific Reports, 2018)

How the values were obtained:
Format in all cases: cell-based
RARα = molecular target: T1, RARα (Homo sapiens, UniProt P10276); assay: Gal4 hybrid reporter gene assay RARα (selectivity profiling)
T1 construct: expressed in transfected cells; host or cells: HEK293T
T1 sequence (P10276 183-417 limits assumed): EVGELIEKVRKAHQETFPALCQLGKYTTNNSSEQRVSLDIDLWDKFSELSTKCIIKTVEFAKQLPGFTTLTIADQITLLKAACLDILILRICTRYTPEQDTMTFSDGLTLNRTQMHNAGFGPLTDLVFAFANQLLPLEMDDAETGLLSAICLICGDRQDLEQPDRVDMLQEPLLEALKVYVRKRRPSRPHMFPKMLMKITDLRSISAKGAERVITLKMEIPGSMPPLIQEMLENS
Experimental: (§1) Moreover, 7 was characterized for its ability to modulate RXR target gene expression under more physiological conditions. Hepatoma cells (HepG2) were incubated with 7 (30 µM) or reference RXR agonist bexarotene (9, 1 µM) for eight hours and mRNA expression of RXR regulated genes ATP-binding cassette transporter A1 (ABCA1), angiopoietin like protein 4 (ANGPTL4) and apolipoprotein E (ApoE) was analysed by quantitative real-time PCR.
(§2) The Gal4 hybrid reporter gene assays were conducted as reported previously[39]–[41]. pFA-CMV-based constructs comprising the ligand binding domain of the human nuclear receptor in question were used as expression plasmids for the chimera receptors. pFR-Luc (Stratagene) served as reporter plasmid and pRL-SV40 (Promega) for normalization of transfection efficiency and cell growth. The assays were conducted in 96-well format in HEK293T cells that were cultured as described previously[39]–[41]. Transient transfection was carried out using Lipofectamine LTX reagent (Invitrogen) according to the manufacturer’s protocol. After transfection and incubation with test compounds (12–14 h), cells were assayed for luciferase activity using Dual-Glo™ Luciferase Assay System (Promega) according to the manufacturer’s protocol. Luminescence was measured with an Infinite M200 luminometer (Tecan Deutschland GmbH). […]

[1] = system: angiopoietin like protein 4 (ANGPTL4) mRNA in HepG2 cells; assay: Target gene quantification (quantitative real-time PCR), ANGPTL4; conditions: HepG2, 7 at 30 µM versus bexarotene at 1 µM, 8 h, qRT-PCR
Experimental: as §1
HepG2 cells were incubated with test compound 7 (30 µM) or bexarotene (1 µM) as positive control each dissolved in 0.1% DMSO or 0.1% DMSO alone as untreated control for 8 h, harvested, washed with cold phosphate buffered saline (PBS) and then directly used for RNA extraction with the Total RNA Mini Kit (R6834-02, Omega Bio-Tek, Inc., Norcross, GA, USA). 2 µg RNA were reverse-transcribed into cDNA using the High-Capacity cDNA Reverse Transcription Kit (4368814, Thermo Fischer Scientific, Inc.). RXR target gene expression was evaluated by quantitative real time PCR analysis with a StepOnePlus™ System (Life Technologies, Carlsbad, CA, USA) using PowerSYBRGreen (Life Technologies; 12.5 µl per well) and the primers reported in Supplementary Table 4[58]. […] The expression was quantified by the comparative ∆∆Ct method. […] Results are expressed as mean ± standard error of the mean (SEM) relative mRNA expression compared to DMSO (0.1%) control which was set as 1.

[2] = molecular target: T2, human RXRβ ligand binding domain (Gal4 hybrid receptor) (Homo sapiens, UniProt P28702); assay: Gal4 hybrid reporter gene assay RXRβ; conditions: HEK293T cells, n ≥ 4, read-out: RXRβ EC50 ± SEM
T2 construct: expressed in transfected cells; host or cells: HEK293T
T2 sequence (P28702 296-529 limits assumed): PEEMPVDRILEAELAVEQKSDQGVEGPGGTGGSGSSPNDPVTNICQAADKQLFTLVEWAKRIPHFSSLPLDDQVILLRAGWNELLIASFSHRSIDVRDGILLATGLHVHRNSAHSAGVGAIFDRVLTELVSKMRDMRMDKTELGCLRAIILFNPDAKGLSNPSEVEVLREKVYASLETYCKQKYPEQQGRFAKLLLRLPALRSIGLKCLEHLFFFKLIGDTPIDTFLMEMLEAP
Experimental: The 20 top-ranked synthetic compounds were selected and tested in vitro for their modulatory activity on RXR (Supplementary Table 1). Compounds were tested in specific hybrid reporter gene assays for RXRα, RXRβ and RXRγ modulation[39]–[41]. These assays rely on a constitutively expressed hybrid receptor composed of the respective human RXR ligand binding domain and the DNA binding domain of the Gal4 receptor from yeast. A Gal4 responsive firefly luciferase was used as reporter gene and constitutively expressed renilla luciferase served as internal control for transfection efficiency and test compound toxicity. All selected compounds were tested at 50 µM concentration on RXRα and for active compounds (Supplementary Fig. 1), dose response curves were recorded on all three RXR subtypes.
The Gal4 hybrid reporter gene assays were conducted as reported previously[39]–[41]. pFA-CMV-based constructs comprising the ligand binding domain of the human nuclear receptor in question were used as expression plasmids for the chimera receptors. pFR-Luc (Stratagene) served as reporter plasmid and pRL-SV40 (Promega) for normalization of transfection efficiency and cell growth. The assays were conducted in 96-well format in HEK293T cells that were cultured as described previously[39]–[41]. Transient transfection was carried out using Lipofectamine LTX reagent (Invitrogen) according to the manufacturer’s protocol. After transfection and incubation with test compounds (12–14 h), cells were assayed for luciferase activity using Dual-Glo™ Luciferase Assay System (Promega) according to the manufacturer’s protocol. Luminescence was measured with an Infinite M200 luminometer (Tecan Deutschland GmbH). All hybrid assays were validated with reference agonists (PPARα: GW7647; PPARγ: pioglitazone; PPARδ: L165,041; LXRα/β: T0901317; FXR: GW4064; RXRs: bexarotene; RARs: tretinoin; VDR: calcitriol; CAR: CITCO; PXR: SR12813) which yielded EC50 values in agreement with literature. The assays were conducted in duplicates with at least two independent repeats and for active compounds repeated without hybrid receptor coding DNA for every test compound at the highest tested concentration to exclude unspecific effects.
Supplementary Figure 2. Dose-response curves for RXRα activation. Compounds were tested in specific hybrid reporter gene assays for RXRα, RXRβ and RXRγ modulation.^1–3 These assays rely on a constitutively expressed hybrid receptor composed of the respective human RXR ligand binding domain and the DNA binding domain of the Gal4 receptor from yeast. A Gal4 responsive firefly luciferase was used as reporter gene and constitutively expressed renilla luciferase served as internal control for transfection efficiency and test compound toxicity. […]

[3] = molecular target: T3, pregnane X receptor [PXR] (Homo sapiens, UniProt O75469); assay: Gal4 hybrid reporter gene assay PXR (selectivity profiling)
T3 construct: expressed in transfected cells; host or cells: HEK293T
T3 sequence (O75469 146-433 limits assumed): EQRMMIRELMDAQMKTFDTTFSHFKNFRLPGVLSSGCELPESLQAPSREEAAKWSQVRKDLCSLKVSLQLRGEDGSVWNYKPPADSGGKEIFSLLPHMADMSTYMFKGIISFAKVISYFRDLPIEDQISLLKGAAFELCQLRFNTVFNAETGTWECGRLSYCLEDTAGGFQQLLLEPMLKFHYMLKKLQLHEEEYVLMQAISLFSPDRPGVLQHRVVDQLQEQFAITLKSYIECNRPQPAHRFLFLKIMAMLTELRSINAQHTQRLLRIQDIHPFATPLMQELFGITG
Experimental: as §1, §2

Q: With CC(C)(C)c1cc(/C=N/NC(=O)c2ccc(N)cc2)cc(C(C)(C)C)c1 [Compound 7] as the compound, how does the “activity on RARα” value (RARα) read?
A: no activity

Q: And the “induction of ANGPTL4 mRNA expression” value [1]?
A: comparable efficacy as RXR agonist bexarotene

Q: And the EC50 [2]?
A: 25.1 ± 0.1 µM

Q: What about the “activity on PXR” value [3] of the same compound?
A: no activity
